Reference: USRE39887E1, “Dehydrodidemnin B” (Pharma Mar, S.A., priority 1989, dated 2007)
Values after ≈ are worked out from the molar mass of the structure shown. Starred links: 1 amine or outer side, 2 acyl side, 3 side chain; linkers in the order of their positions; H or OH if unused. Positions of bridges follow the written chain, without caps; N, C: chain ends. Non-standard residues stand in square brackets, D forms with d. Residues, ends and D or L forms follow the SMILES beside them. *: point of attachment. X1 = CC[C@H](C)[C@@H](N[*:1])[C@@H](O)CC(=O)O[C@H](C(=O)[C@H](C)C(=O)[*:2])C(C)C; NMeY = CN[C@@H](Cc1ccc(O)cc1)C(=O)O; dNMeL = CN[C@H](CC(C)C)C(=O)O; Pyruvoyl = CC(=O)C(=O)*

What was measured:
murine cells = assay: Mixed lymphocyte reaction
murine B-cells = assay: Growth of murine B-cells
[1] = tested on: P-388 mouse leukemia cells; assay: P-388 in vivo activity; settings: QD 1-9, IP
[2] = tested on: CV-1 cells (monkey kidney cells); assay: Cytotoxicity to CV-1 cells; format: cell-based
L-1210 cells = assay: Growth inhibition of L-1210 cells; format: cell-based, mouse
Experimental: 2.1 Assay Against L-1210 Cells (Ascetic Fluid from DBA/2mouse)
L-1210 cells were seeded into 16 mm wells at 1×10^4 cells per well in 1 mL aliquots of MEN 10C containing the indicated concentrations of drug. All determinations were carried out in triplicate. Cells were counted after three […] to ensure that the cells remained in exponential growth over the period of observation.

B-16 melanoma cells = assay: B-16 melanoma in vivo activity; set-up: species or system mouse; settings: QD 1-9, IP; for B-16 Melanoma % T/C: significant activity T/C ≧ 125
murine T-cells = assay: Growth of murine T-cells
P-388 cells = assay: Growth inhibition of P-388 cells; format: cell-based, mouse; settings: for % Inhibition / net increase in cell number: three days
Experimental: 2.2 Assay Against P-388 Cells (Lymphoid Neoplasm from DBA/2mouse)
P-388 cells were seeded into 16 mm wells at 1×10^4 cells per well in 1 mL aliquots of MEM 10C containing the indicated concentrations of drug. All determination were carried out in triplicate. Cells were counted after three days of incubation. A separate set of cultures within drug was counted daily to ensure that the cells remained in exponential growth over the period of observation.

HeLa cells = assay: Growth inhibition of HeLa cells; format: cell-based, human; settings: HeLa cells in vitro
Experimental: 2.6 Assay Against HeLa Cells (Human Cervix Epithelioid Carcinoma)
HeLa cells were seeded into 16 mm wells at 1×10^4 cells per well in 1 mL aliquots of MEM 10C. The following day, the medium was replaced with 0.5 mL aliquots of MEM 10C containing the indicated concentrations of drug. All determinations were carried out in triplicate. A separate set of cultures without drug was counted daily to ensure that the cells remained in exponential growth over the period of observation. Cells were trypsinized and counted 4 days after seeding.

KB cells = assay: Growth inhibition of KB cells; format: cell-based, human; settings: for % Inhibition / net increase in cell number: KB
[3] = Immunosuppressive / immunomodulator activity
[4] = tested on: Herpes simplex virus, type 1; assay: Inhibition of HSV-1 replication in CV-1 cells; format: cell-based; set-up: net virus produced / % Inhibition: dose or concentration left out as unconfirmed; settings: HSV-1 in CV-1 cells; for % Inhibition / net virus produced: 24 hours after infection
Experimental: 2.8 Assay Against HSV-1 (Herpes Simplex Virus Type-1)
16 mm diameter wells were seeded each with 2×10^5 CV-1 cells in 1 mL aliquots of MEM 10C. Four days after, cells were infected with HSV-1 at 10C PFU per well. After adsorption for 1.5 hours, the inoculum was replaced in pairs of wells with 0.5 mL aliquots of MEM 5C containing the indicated concentrations of drug. Cells from two wells without drug were scraped into the medium and frozen 4 hours after infection to provide a baseline for calculating new virus production. The average of these samples was 2.5×10^5+1.2×10^6 PFU per mL. The remaining samples were collected 24 hours after infection.

A-549 cells = assay: Growth inhibition of A-549 cells; format: cell-based, human; settings: for % Inhibition / net increase in cell number: 4 days after seeding
Experimental: 2.5 Assay Against A-549 Cells (Human Lung Carcinoma)
A-549 cells were seeded into 16 mm wells at 1×10^4 cells per well in 1 mL aliquots of MEM 10C. The following day, the medium was replaced with 0.5 mL aliquots of MEM 10C containing the indicated concentrations of drug. All determinations were carried out in triplicate. A separate set of cultures without drug was counted daily to ensure that the cells remained in exponential growth over the period of observation. Cells were trypsinated and counted 4 days after seeding.

[5] = tested on: Lewis lung carcinoma cells; assay: Lewis lung in vivo activity; settings: QD 1-9, IP
L-929 cells = assay: Growth inhibition of L-929 cells; format: cell-based, mouse; settings: for % Inhibition / net increase in cell number: 4 days after seeding
Experimental: 2.3 Assay Against L-929 Cells (Mouse Areolar and Adipose Tissue)
L-929 cells were seeded into 16 mm wells at 1×10^4 cells per well in 1 mL aliquots of MEM 10C. […] The following day, the medium was replaced with 0.5 mL aliquots of MEM 10C containing the indicated concentrations of drug. All determinations were carried out in triplicate. A separate set of cultures without drug was counted daily to ensure that the cells remained in exponential growth over the period of observation. Cells were typsinized and counted 4 days after seeding.

B-16 cells = assay: Growth inhibition of B-16 cells; format: cell-based, mouse; settings: for % Inhibition / net increase in cell number: 4 day after seeding
Experimental: 2.4 Assay Against B-16 (Mouse Melanoma)
B-16 cells were seeded into 16 mm wells at 1×10^4 cells per well in 1 mL aliquots of MEM 10C […] were carried out in triplicate. A separate set of cultures without drug was counted daily to ensure that the cells remained in exponential growth over the period for observation. Cells were typsinized and counted 4 day after seeding.

human lymphocytes = settings: compared with other didemnin compounds; Montgomery et al. (1987); cited from earlier work
[6] = Montgomery et al., Transplantation, 40, 49-56 (1985); cited from earlier work

CC[C@H](C)[C@H]1NC(=O)[C@@H](NC(=O)[C@@H](CC(C)C)N(C)C(=O)[C@@H]2CCCN2C(=O)C(C)=O)[C@@H](C)OC(=O)[C@H](Cc2ccc(OC)cc2)N(C)C(=O)[C@@H]2CCCN2C(=O)[C@H](CC(C)C)NC(=O)[C@@H](C)C(=O)[C@H](C(C)C)OC(=O)C[C@@H]1O [DDB, dehydrodidemnin B] (Pyruvoyl-P[dNMeL]T[X1]LP[NMeY](Me); ester 3-C)
immune reaction in the mixed lymphocyte reaction (murine cells): suppresses the immune reaction of murine cells
growth of murine B-cells (murine B-cells): inhibits the growth
P-388, Median Survival Time ([1]; 80 μg/kg/injn): 19.5 days
P-388, Median Survival Time ([1]; 160 μg/kg/injn): 21.0 days
IC50 [2]: 1000 ng/mL (≈ 901 nM)
% Inhibition (L-1210 cells; L-1210, 0.05 ng/mL DDB): 7%
net increase in cell number (L-1210 cells; L-1210, 0.05 ng/mL DDB): 2.7 × 10^5
% Inhibition (L-1210 cells; L-1210, 0.1 ng/mL DDB): 7%
net increase in cell number (L-1210 cells; L-1210, 0.1 ng/mL DDB): 2.7 × 10^5
% Inhibition (L-1210 cells; L-1210, 0.2 ng/mL DDB): 28%
net increase in cell number (L-1210 cells; L-1210, 0.2 ng/mL DDB): 2.1 × 10^5
% Inhibition (L-1210 cells; L-1210, 0.5 ng/mL DDB): 66%
net increase in cell number (L-1210 cells; L-1210, 0.5 ng/mL DDB): 1.0 × 10^5
% Inhibition (L-1210 cells; L-1210, 1 ng/mL DDB): 91%
net increase in cell number (L-1210 cells; L-1210, 1 ng/mL DDB): 2.5 × 10^5
% Inhibition (L-1210 cells; L-1210, 2 ng/mL DDB): 98%
net increase in cell number (L-1210 cells; L-1210, 2 ng/mL DDB): 6.3 × 10^5
IC50 (L-1210 cells; L-1210 cells in vitro): 0.3 ng/mL (≈ 0.27 nM)
B-16 Melanoma Median Survival Time Days (B-16 melanoma cells; 80 μg/kg/injn): >27.0 days
B-16 Melanoma % T/C (B-16 melanoma cells; 80 μg/kg/injn): >158%
B-16 Melanoma Median Survival Time Days (B-16 melanoma cells; 160 μg/kg/injn): >27.0 days
B-16 Melanoma % T/C (B-16 melanoma cells; 160 μg/kg/injn): >158%
growth of murine T-cells (murine T-cells): inhibits the growth
% Inhibition (P-388 cells; P-388, 0.12 ng/mL DDB): 29%
net increase in cell number (P-388 cells; P-388, 0.12 ng/mL DDB): 3.97 × 10^5
% Inhibition (P-388 cells; P-388, 0.25 ng/mL DDB): 77%
net increase in cell number (P-388 cells; P-388, 0.25 ng/mL DDB): 1.27 × 10^5
% Inhibition (P-388 cells; P-388, 0.5 ng/mL DDB): 92%
net increase in cell number (P-388 cells; P-388, 0.5 ng/mL DDB): 4.47 × 10^5
IC50 (P-388 cells; P-388 cells in vitro): 0.175 ng/mL (≈ 0.158 nM)
IC50 (HeLa cells): 0.5 ng/mL (≈ 0.45 nM)
IC50 (KB cells; KB cells in vitro): 5.6 ng/mL (≈ 5.04 nM)
% Inhibition (KB cells; 2.5 ng/mL DDB): 0%
net increase in cell number (KB cells; 2.5 ng/mL DDB): 4.57 × 10^4
% Inhibition (KB cells; 5 ng/mL DDB): 46%
net increase in cell number (KB cells; 5 ng/mL DDB): 2.40 × 10^4
% Inhibition (KB cells; 10 ng/mL DDB): 77%
net increase in cell number (KB cells; 10 ng/mL DDB): 1.02 × 10^4
immunomodulator activity [3]: powerful immunomodulator
IC50 [4]: 60 ng/mL (≈ 54 nM)
% Inhibition ([4]; 0.03 DDB): 16%
net virus produced ([4]; 0.03 DDB): 3.8 × 10^8 PFU/mL
% Inhibition ([4]; 0.1 DDB): 67%
net virus produced ([4]; 0.1 DDB): 1.5 × 10^8 PFU/mL
% Inhibition ([4]; 0.3 DDB): 96%
net virus produced ([4]; 0.3 DDB): 1.9 × 10^8 PFU/mL
% Inhibition ([4]; 1 DDB): 100%
net virus produced ([4]; 1 DDB): 0 PFU/mL
% Inhibition (A-549 cells; A-549, 0.25 ng/mL DDB): 41%
net increase in cell number (A-549 cells; A-549, 0.25 ng/mL DDB): 4.80 × 10^4
% Inhibition (A-549 cells; A-549, 0.50 ng/mL DDB): 50%
net increase in cell number (A-549 cells; A-549, 0.50 ng/mL DDB): 4.00 × 10^4
% Inhibition (A-549 cells; A-549, 1.0 ng/mL DDB): 68%
net increase in cell number (A-549 cells; A-549, 1.0 ng/mL DDB): 2.50 × 10^4
% Inhibition (A-549 cells; A-549, 2.5 ng/mL DDB): 84%
net increase in cell number (A-549 cells; A-549, 2.5 ng/mL DDB): 1.30 × 10^4
IC50 (A-549 cells; A-549 cells in vitro): 0.5 ng/mL (≈ 0.45 nM)
Lewis Lung, Mean Tumor Volume ([5]; 80 μg/kg/injn): 189 mm^3
Lewis Lung, Mean Tumor Volume ([5]; 160 μg/kg/injn): 0 mm^3
% Inhibition (L-929 cells; L-929, 1 ng/mL DDB): 27%
net increase in cell number (L-929 cells; L-929, 1 ng/mL DDB): 2.31 × 10^5
% Inhibition (L-929 cells; L-929, 2.5 ng/mL DDB): 64%
net increase in cell number (L-929 cells; L-929, 2.5 ng/mL DDB): 1.13 × 10^5
% Inhibition (L-929 cells; L-929, 5 ng/mL DDB): 84%
net increase in cell number (L-929 cells; L-929, 5 ng/mL DDB): 5 × 10^5
IC50 (L-929 cells; L-929 cells in vitro): 1.9 ng/mL (≈ 1.71 nM)
% Inhibition (B-16 cells; B-16, 0.12 ng/mL DDB): 25%
net increase in cell number (B-16 cells; B-16, 0.12 ng/mL DDB): 1.27 × 10^5
% Inhibition (B-16 cells; B-16, 0.16 ng/mL DDB): 0%
net increase in cell number (B-16 cells; B-16, 0.16 ng/mL DDB): 1.71 × 10^5
% Inhibition (B-16 cells; B-16, 0.25 ng/mL DDB): 54%
net increase in cell number (B-16 cells; B-16, 0.25 ng/mL DDB): 8.25 × 10^5
% Inhibition (B-16 cells; B-16, 0.5 ng/mL DDB): 74%
net increase in cell number (B-16 cells; B-16, 0.5 ng/mL DDB): 4.50 × 10^4
% Inhibition (B-16 cells; B-16, 1.0 ng/mL DDB): 83%
net increase in cell number (B-16 cells; B-16, 1.0 ng/mL DDB): 2.88 × 10^4
IC50 (B-16 cells; B-16 cells in vitro): 0.225 ng/mL (≈ 0.203 nM)

CC[C@H](C)[C@H]1NC(=O)[C@@H](NC(=O)[C@@H](CC(C)C)N(C)C(=O)[C@@H]2CCCN2C(=O)C(C)O)[C@@H](C)OC(=O)[C@H](Cc2ccc(OC)cc2)N(C)C(=O)[C@@H]2CCCN2C(=O)[C@H](CC(C)C)NC(=O)[C@@H](C)C(=O)[C@H](C(C)C)OC(=O)C[C@@H]1O (stereo partly shown) [Didemnin B]
inhibition of binding of prolactin to human lymphocytes (human lymphocytes): more potent inhibition
immunosuppressive activity [6]: potent immunosuppressive activity
